According to patent US8785453B2, “Arylpiperazine-containing purine derivatives and uses thereof” (Green Cross Corporation, priority 2009, dated 2014):
pIC50: −log10 of the molar value. Structures can show the parent of a compound that is named as a salt. Where two headings read alike, the source gives them in different places. Marks after values point to notes of the source that are not given here. Each block holds one molecule with its values, some of them ahead of it.

What was measured:
[1] = target: T1, human recombinant serotonin 5-HT2A receptor (Homo sapiens, UniProt P28223); assay: Binding affinity for serotonin 5-HT2A receptor ([3H]Ketanserin)
T1 construct: purchased PerkinElmer Life and Analytical Sciences, USA; host or cells: CHO-K1 cells
T1 sequence (P28223 whole entry): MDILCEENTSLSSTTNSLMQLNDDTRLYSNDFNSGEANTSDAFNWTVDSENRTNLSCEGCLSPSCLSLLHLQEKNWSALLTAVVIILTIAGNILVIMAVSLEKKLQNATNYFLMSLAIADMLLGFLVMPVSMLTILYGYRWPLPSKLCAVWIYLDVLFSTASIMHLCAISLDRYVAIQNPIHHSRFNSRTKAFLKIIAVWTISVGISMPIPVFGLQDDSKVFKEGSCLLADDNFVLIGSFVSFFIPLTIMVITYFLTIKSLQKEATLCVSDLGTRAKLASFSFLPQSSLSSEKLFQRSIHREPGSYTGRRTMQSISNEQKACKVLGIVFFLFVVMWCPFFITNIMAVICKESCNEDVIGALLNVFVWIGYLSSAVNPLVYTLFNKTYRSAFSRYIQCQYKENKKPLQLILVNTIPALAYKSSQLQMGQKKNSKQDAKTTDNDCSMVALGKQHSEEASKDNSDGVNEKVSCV
Description: (§1) Receptor binding affinities of the compounds for serotonin receptors were measured by the method described in the literature (see [Park W K et al., Pharmacol Biochem Behav., 82(2), 361-372 (2005)].
For serotonin 5-HT2A binding, an aliquot of human recombinant serotonin 5-HT2A receptor (PerkinElmer Life and Analytical Sciences, USA) expressed in CHO-K1 cells (5 μg/well) and 1 nM [^3H]Ketanserin (PerkinElmer) were used in the presence of mianserin (20 μM) as a nonspecific. The reaction mixture was incubated for 60 min […] 50 mM Tris-HCl (pH 7.4) buffer containing 4 mM CaCl2 and 0.1% ascorbic acid, and harvested through filtermate A glass fiber filter (Wallac, Finland) presoaked in 0.5% polyethyleneimine (PEI) by microbeta filtermate-96 harvester (PerkinElmer) to terminate the reaction, and then washed with ice cold 50 mM Tris-HCl buffer solution (pH 7.4). The filter was then covered with MeltiLex, sealed in a sample bag, dried in an oven. The radioactivity retained in the filter was finally counted using MicroBeta Plus (Wallac).
(§2) The binding affinity (IC50) of a compound for the receptor was calculated by computerized nonlinear regression analysis (GraphPad Prism Program, San Diego, USA) using 7-8 varied concentrations of the compound run in duplicate tubes.

[2] = target: T2, human recombinant 5-HT2C receptor (Homo sapiens, UniProt P28335); assay: Binding affinity for serotonin 5-HT2C receptor ([3H]Mesulergine)
T2 construct: purchased PerkinElmer
T2 sequence (P28335 33-458): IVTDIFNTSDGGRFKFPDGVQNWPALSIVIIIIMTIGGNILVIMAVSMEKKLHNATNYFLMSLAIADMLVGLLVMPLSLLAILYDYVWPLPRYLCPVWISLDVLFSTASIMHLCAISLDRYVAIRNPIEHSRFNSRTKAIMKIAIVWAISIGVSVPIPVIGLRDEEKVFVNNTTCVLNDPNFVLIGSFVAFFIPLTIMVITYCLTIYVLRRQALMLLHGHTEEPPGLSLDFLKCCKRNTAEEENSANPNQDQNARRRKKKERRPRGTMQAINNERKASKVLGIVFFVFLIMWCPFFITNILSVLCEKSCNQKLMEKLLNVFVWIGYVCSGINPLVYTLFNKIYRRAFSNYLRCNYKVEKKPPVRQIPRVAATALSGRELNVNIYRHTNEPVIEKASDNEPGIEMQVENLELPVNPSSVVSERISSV
Description: as §1, §2
For serotonin 5-HT2C binding, frozen membranes from stable CHO-K1 cell line expressing the human recombinant 5-HT2C receptor (PerkinElmer, 4 μg/well), [^3H]Mesulergine (Amersham, 1.3 nM) and test compounds were added into 50 mM Tris-HCl (pH 7.4) buffer containing 0.1% ascorbic acid and 4 mM CaCl2. Nonspecific binding was determined using 100 μM mianserin. The incubations were performed for 60 min at 27, and these were terminated by rapid filtration through filtermate A glass fiber filter presoaked in 0.5% PEI.

[3] = target: T3, human serotonin transporter (Homo sapiens, UniProt P31645); assay: Binding affinity for serotonin transporter ([3H]Imipramine)
T3 construct: purchased PerkinElmer; host or cells: HEK-293 cells
T3 sequence (P31645 whole entry): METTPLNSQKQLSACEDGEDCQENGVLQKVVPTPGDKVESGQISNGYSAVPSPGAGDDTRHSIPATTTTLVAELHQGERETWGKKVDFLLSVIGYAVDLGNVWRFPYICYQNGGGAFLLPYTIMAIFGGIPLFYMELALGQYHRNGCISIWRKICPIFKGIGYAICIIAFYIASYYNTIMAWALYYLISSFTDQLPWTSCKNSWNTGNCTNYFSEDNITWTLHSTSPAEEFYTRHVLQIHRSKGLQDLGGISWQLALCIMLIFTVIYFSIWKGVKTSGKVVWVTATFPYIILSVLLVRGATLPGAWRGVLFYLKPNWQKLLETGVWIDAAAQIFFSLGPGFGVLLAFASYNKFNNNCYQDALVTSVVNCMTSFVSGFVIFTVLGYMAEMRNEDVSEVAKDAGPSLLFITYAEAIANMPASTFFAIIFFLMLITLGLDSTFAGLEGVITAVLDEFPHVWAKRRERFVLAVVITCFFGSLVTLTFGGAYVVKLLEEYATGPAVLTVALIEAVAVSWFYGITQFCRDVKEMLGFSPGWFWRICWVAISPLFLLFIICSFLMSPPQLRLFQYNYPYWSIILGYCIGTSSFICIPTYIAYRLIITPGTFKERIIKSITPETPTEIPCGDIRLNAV
Description: For serotonin transporter binding assays, a reaction mixture with a final volume of 0.25 ml was prepared by mixing a test compound, human serotonin transporter membrane expressed in HEK-293 cells (PerkinElmer, 5 μg/well), [^3H] Imipramine (PerkinElmer, 2 nM) and 50 mM Tris-HCl (pH 7.4) buffer containing 120 mM NaCl and 5 mM KCl. The reaction mixture was incubated for 30 min at 27, and harvested through filtermate A glass fiber filter presoaked in 0.5% PEI with ice cold 50 mM Tris-HCl buffer (pH 7.4) containing 0.9% NaCl.

mice = assay: Anti-depressants activity in forced swimming test; type: in vivo; conditions: 60 min before testing
Description: Each mouse was placed in a 25 cm glass cylinder (10 cm diameter) containing 15 cm of water maintained at 22±1, and was forced to swim for 10 min. 24 hours later, the mouse was replaced into the cylinder and the total duration of immobility was recorded during the last 5 min of the 6-min testing period. Mice are judged immobile when they float in an upright position and make only small movements to keep their head above water. Test drugs were suspended in 3% Tween 80 solution, and administered orally (po) 60 min before the testing.

[4] = CHO-K1 cells, 1 nM [3H]Ketanserin, read-out: binding affinity (IC50) 5-HT2A
[5] = CHO-K1 membranes, 1.3 nM [3H]Mesulergine, read-out: binding affinity (IC50) 5-HT2C
[6] = HEK-293 membrane, 2 nM [3H]Imipramine, read-out: binding affinity Serotonin Transporter

SMILES: Clc1cccc(N2CCN(CCCNc3ncnc4c3nc(-c3ccccc3)n4-c3ccccc3)CC2)c1Cl [Example 1, N-(3-(4-(2,3-dichlorophenyl)piperazin-1-yl)propyl)-8,9-diphenyl-9H-purine-6-amine]
- pIC50 [1]: 7.85
- pIC50 [2]: 7.07
- pIC50 [3]: 7.19
- Immobility in forced swimming test (mice; 50 mg/kg po): 41.79%

SMILES: Cc1cccc(N2CCN(CCCNc3ncnc4c3nc(-c3ccccc3)n4-c3ccccc3)CC2)c1C [Example 2, N-(3-(4-(2,3-dimethylphenyl)piperazin-1-yl)propyl)-8,9-diphenyl-9H-purine-6-amine]
- pIC50 [1, 4]: 7.49
- pIC50 [2, 5]: 6.79
- pIC50 [3, 6]: 7.12
- Immobility in forced swimming test (mice; 25 mg/kg po): 58.34 ± 11.05%
- Immobility in forced swimming test (mice; 50 mg/kg po): 47.13 ± 10.41%

SMILES: CCc1nc2c(NCCN3CCN(c4cccc(C)c4C)CC3)ncnc2n1-c1ccccc1 [Example 10, N-(2-(4-(2,3-dimethylphenyl)piperazin-1-yl)ethyl)-8-ethyl-9-phenyl-9H-purine-6-amine]
- pIC50 [1, 4]: 7.96
- pIC50 [2, 5]: 6.97
- pIC50 [3, 6]: 6.79
- Immobility in forced swimming test (mice; 25 mg/kg po): 74.56 ± 14.08%
- Immobility in forced swimming test (mice; 50 mg/kg po): 80.58 ± 11.21%

SMILES: CCCc1nc2c(NCCN3CCN(c4cccc(C)c4C)CC3)ncnc2n1-c1ccccc1 [Example 12, N-(2-(4-(2,3-dimethylphenyl)piperazin-1-yl)ethyl)-9-phenyl-8-propyl-9H-purine-6-amine]
- pIC50 [1, 4]: 7.89
- pIC50 [2, 5]: 6.83
- pIC50 [3, 6]: 7.03
- Immobility in forced swimming test (mice; 25 mg/kg po): 94.69 ± 12.46%

SMILES: Cc1cccc(N2CCN(CCCNc3ncnc4c3ncn4-c3ccccc3)CC2)c1C [Example 13, N-(3-(4-(2,3-dimethylphenyl)piperazin-1-yl)propyl)-9-phenyl-9H-purine-6-amine]
- pIC50 [1, 4]: 7.25
- pIC50 [2, 5]: 6.53
- pIC50 [3, 6]: 7.46
- Immobility in forced swimming test (mice; 25 mg/kg po): 89.81 ± 7.14%

SMILES: Cc1cccc(N2CCN(CCNc3ncnc4c3nc(-c3ccccc3)n4-c3ccccc3)CC2)c1C [Example 18, N-(2-(4-(2,3-dimethylphenyl)piperazin-1-yl)ethyl)-8,9-diphenyl-9H-purine-6-amine]
- pIC50 [1, 4]: 7.55
- pIC50 [2, 5]: 6.67
- pIC50 [3, 6]: 6.24
- Immobility in forced swimming test (mice; 25 mg/kg po): 89.98 ± 11.45%

SMILES: Cc1cccc(N2CCN(CCCNc3ncnc4c3nc(-c3ccccc3)n4C)CC2)c1C [Example 23, N-(3-(4-(2,3-dimethylphenyl)piperazin-1-yl)propyl)-9-methyl-8-phenyl-9H-purine-6-amine]
- pIC50 [1, 4]: 7.44
- pIC50 [2, 5]: 7.12
- pIC50 [3, 6]: 6.97
- Immobility in forced swimming test (mice; 25 mg/kg po): 99.59 ± 6.34%

SMILES: Cc1cccc(N2CCN(CCCNc3ncnc4c3nc(C)n4C)CC2)c1C [Example 28, N-(3-(4-(2,3-dimethylphenyl)piperazin-1-yl)propyl)-8,9-dimethyl-9H-purine-6-amine]
- pIC50 [1, 4]: 7.19
- pIC50 [2, 5]: 6.37
- pIC50 [3, 6]: 7.07
- Immobility in forced swimming test (mice; 25 mg/kg po): 87.65 ± 7.08%

SMILES: Cc1c(Cl)cccc1N1CCN(CCCNc2ncnc3c2nc(-c2ccccc2)n3-c2ccccc2)CC1 [Example 67, N-(3-(4-(3-chloro-2-methylphenyl)piperazin-1-yl)propyl)-8,9-diphenyl-9H-purine-6-amine]
- pIC50 [1, 4]: 7.38
- pIC50 [2, 5]: 6.61
- pIC50 [3, 6]: 7.02

SMILES: Cc1cccc(N2CCN(CCCNc3ncnc4c3nc(-c3ccccc3)n4-c3ccc(F)cc3)CC2)c1C [Example 79, N-(3-(4-(2,3-dimethylphenyl)piperazin-1-yl)propyl)-9-(4-fluorophenyl)-8-phenyl-9H-purine-6-amine]
- pIC50 [1, 4]: 7.37
- pIC50 [2, 5]: 6.52
- pIC50 [3, 6]: 7.17

- pIC50 [1, 4]: 8.02
- pIC50 [2, 5]: 7.15
- pIC50 [3, 6]: 6.44
SMILES: CSc1ccc(-n2c(C)nc3c(NCCN4CCN(c5cccc(C)c5C)CC4)ncnc32)cc1 [Example 85, N-(2-(4-(2,3-dimethylphenyl)piperazin-1-yl)ethyl)-8-methyl-9-(4-(methylthio)phenyl)-9H-purine-6-amine hydrochloride]

SMILES: CNCCC(Oc1ccc(C(F)(F)F)cc1)c1ccccc1 (stereo not drawn) [Fluoxetine, reference compound]
- Immobility in forced swimming test (mice; 50 mg/kg po): 70.4^b %
- Immobility in forced swimming test (mice; 100 mg/kg po): 59.5^b %
